Data published in US12642852B1, “Genomic engineering of pluripotent cells” (Fate Therapeutics, Inc., priority 2015, dated 2026).

Legend:
[1] = test system: puro-selected 293T cells with CMV-driven iCasp9 (AAVS1-G1.0) at AAVS1 locus; assay: In vitro inducible killing by AP1903, 7AAD staining and flow cytometry, 293T cells; type: cell-based; conditions: AP1903 10 nM or 120 nM, 24 hrs, DMSO control, n=2
Text: (§1) In vitro inducible killing of iCasp9-integrated iPSCs: The chemical inducer of dimerization (CID; AP1903) was purchased from Medchemexpress (Monmouth Junction, NJ). Twenty-four hours after CID exposure, the cells were harvested and stained with 7-amino actinomycin D (7-AAD) according to the manufacturer's instruction (BD Biosciences). The percentage of 7-AAD positive cells were quantified as dead cells by flow cytometry (Guava, EMD Millipore, Billerica, MA) and analyzed with flowjo software.
A donor construct encompassing CMV-driven iCasp9 (AAVS1-G1.0) was designed to target the AAVS1 locus (FIG. 1A) and to integrate the Casp9 suicide gene to 293T cells. The donor construct also comprise GFP and puromycin genes, the expression of which are driven by AAVS1 endogenous promoter once the targeted insertion takes place (FIG. 1A). 293T cells were transfected with ZFNs specific to AAVS1 locus and the donor construct AAVS1-G1.0. Three days after transfection, the puromycin selection was started and continued for 12 days. The puro-selected population was analyzed by flow cytometry for GFP expression, and a range of GFP expression levels were observed. It was observed that about 82% of the puro-selected cell population expressed GFP (FIG. 1B). […] The treated cells were then harvested and stained with 7AAD, which selectively stains membrane-compromised dying cells, and analyzed by flow cytometry. […]

iCasp9-integrated iPSCs = assay: In vitro inducible killing of iCasp9-integrated iPSCs by AP1903, 7AAD/GFP flow cytometry; type: cell-based, human; conditions: for cell death mediated by AP1903 (7AAD negative cells percentage): 24 hrs
Text: as §1
Similar to 293T cells, hiPSCs were transfected with ZFNs specific to AAVS1 locus and a donor construct encompassing CMV-driven iCasp9 (AAVS1-G1.0). The puromycin selection was started 3 days after transfection and continued for 16 days. The puro-resistant cells were analyzed by flow cytometry for GFP expression. Three populations based on the GFP intensity, GFP (neg), GFP (low) and GFP (hi) were sorted by flow cytometry (FIG. 1E). […] The treated cells were harvested and stained with 7AAD and analyzed by flow cytometry. […] However, in contrast to 293T cells with targeted Casp9 insertion at AAVS1 locus, cell death mediated by the AP1903 was not detected in all treatments in iPSCs with targeted Casp9 insertion at AAVS1 locus (FIG. 1F). […]
Because in the previous study puromycin selection under the AAVS1 promoter was robustly expressed to maintain viability and growth during selection, next a donor construct encompassing iCasp9 was designed to target the AAVS1 locus with endogenous AAVS1 promoter driving iCasp9 gene expression upon insertion (and GFP, and puromycin marker genes) (FIG. 2A). hiPSCs were transfected with ZFNs specific to AAVS1 locus and the donor construct encompassing iCasp9 under the control of AAVS1 endogenous promoter. […] The treated cells were harvested and stained with 7AAD and analyzed by flow cytometry. […] However, cell death mediated by the AP1903 was not detected in all treatments in iPSCs with targeted insertion of Casp9 at AAVS1 locus, and controlled Casp9 expression by endogenous AAVS1 promoter (FIG. 2C). […]

[2] = test system: CAG-C38 iCasp9 iPSC clone with targeted insertion of sr39TK into H11 locus; assay: Dual suicide gene safe guard system killing in vitro (iCasp9 at AAVS1, sr39TK at H11); type: cell-based, human
Text: In addition to CAG-iCasp9 integrated into AAVS1 locus, CAG-sr39TK was integrated into H11 safe harbor in CAG-C38 clonal iPSC using targeted insertion method described herein.

Row | Compound | cell death (7AAD negative cells percentage) [1] | cell death mediated by AP1903 (7AAD negative cells percentage) (iCasp9-integrated iPSCs; hiPSCs with CMV-driven iCasp9, GFP (neg), GFP (low), GFP (hi) populations, 10 nM or 100 nM) | AP1903 cell death induction of GFP positive cells (iCasp9-integrated iPSCs; hiPSCs with EF1α-driven iCasp9 at AAVS1, puromycin selected 20 days) | cell death mediated by AP1903 (7AAD negative cells percentage) (iCasp9-integrated iPSCs; iPSCs with iCasp9 under endogenous AAVS1 promoter) | inducible killing ([2]; 10 nM AP1903 alone for two days) | inducible killing ([2]; 25 μg/mL GCV alone for nine days)
1 | CC[C@H](C(=O)N1CCCC[C@H]1C(=O)O[C@H](CCc1ccc(OC)c(OC)c1)c1cccc(OCC(=O)NCCNC(=O)COc2cccc([C@@H](CCc3ccc(OC)c(OC)c3)OC(=O)[C@@H]3CCCCN3C(=O)[C@@H](CC)c3cc(OC)c(OC)c(OC)c3)c2)c1)c1cc(OC)c(OC)c(OC)c1 [AP1903] | Significant cell death was detected | not detected | although few, were responsive | not detected | inducible killing of most cells but rare cells remained | –
2 | Nc1nc(O)c2ncn(COC(CO)CO)c2n1 [GCV, Ganciclovir] | – | – | – | – | – | expanded GCV-refractory cells
